Experimental data reported in patent publication US10772807B2, “Lipid microcapsules preferably comprising a retinoid, and composition containing same, method for the production thereof, and use of same in dermatology” (GALDERMA RESEARCH & DEVELOPMENT, priority 2013, dated 2020).

How the values were obtained:
[1] = Maximum solubility of Trifarotene in various oily phases; assay type: physicochemical
[2] = Chemical stability of Trifarotene in oily phases (HPLC-UV); assay type: physicochemical
Protocol: The stability of the active agent was evaluated by liquid chromatography coupled to a UV detector (HPLC-UV).

[3] = in Caprylic/capric acid triglycerides (Miglyol ® 812N)
[4] = in Diisopropyl adipate (Schercemol Dia Ester)
[5] = in Macrogol oleate (Labrafil ® M1944CS)
[6] = in Octyldodecanol (Eutanol ® G)
[7] = in PPG-15 stearyl ether (Arlamol PS11E-LQ)
[8] = in Propylene glycol dicaprylate/dicaprate (Myritol ® PC)
[9] = in Propylene glycol monolaurate (Lauroglycol ® FCC)

Maximum solubility ([1]; in Alkyl (C12-15) benzoate (Crodamol AB)): 0.026 % w/w
Maximum solubility [1, 3]: 0.019 % w/w
Maximum solubility [1, 4]: 0.297 % w/w
Maximum solubility [1, 5]: 0.156 % w/w
Maximum solubility ([1]; in Mineral oil): 0.0001 % w/w
Maximum solubility [1, 6]: 0.137 % w/w
Maximum solubility [1, 7]: 0.292 % w/w
Maximum solubility [1, 8]: 0.069 % w/w
Maximum solubility ([1]; in Propylene glycol monocaprylate (Capryol ® 90)): 0.802 % w/w
Maximum solubility [1, 9]: 0.296 % w/w
Maximum solubility ([1]; in Sweet almond oil): 0.011 % w/w
Stability [2, 3]: 6 months AT/40 °C
Stability [2, 4]: 6 months AT/40 °C
Stability [2, 5]: 6 months AT/40 °C
Stability [2, 6]: Unstable
Stability [2, 7]: 6 months AT/40 °C
Stability [2, 8]: Unstable
Stability ([2]; in Propylene glycol monocaprylate (Capryol ® 90), AT = ambient temperature): 6 months AT/40 °C
Stability [2, 9]: 6 months AT/40 °C
Stability ([2]; in Sweet almond oil): 6 months AT/40 °C
Structure (SMILES): CC(C)(C)c1cc(-c2cc(-c3ccc(C(=O)O)cc3)ccc2OCCO)ccc1N1CCCC1 [Trifarotene, 3″-tert-butyl-4′-(2-hydroxyethoxy)-4″-pyrrolidin-1-yl-[1,1′;3′,1″]-terphenyl-4-carboxylic acid]
